Consider 1 compound from patent US11219625B2, “Inhibitors of N-linked glycosylation and methods using same” (YALE UNIVERSITY, priority 2015, dated 2022).

SMILES strings stand for the structures.

The target in test [1] is T1, OST (Canis lupus familiaris, UniProt F1PJP5).
T1 construct: rabbit reticulocyte lysate translation system supplemented with canine pancreas rough microsomes (cRM); from tissue; host or cells: canine pancreas rough microsomes
T1 sequence (F1PJP5 1-705): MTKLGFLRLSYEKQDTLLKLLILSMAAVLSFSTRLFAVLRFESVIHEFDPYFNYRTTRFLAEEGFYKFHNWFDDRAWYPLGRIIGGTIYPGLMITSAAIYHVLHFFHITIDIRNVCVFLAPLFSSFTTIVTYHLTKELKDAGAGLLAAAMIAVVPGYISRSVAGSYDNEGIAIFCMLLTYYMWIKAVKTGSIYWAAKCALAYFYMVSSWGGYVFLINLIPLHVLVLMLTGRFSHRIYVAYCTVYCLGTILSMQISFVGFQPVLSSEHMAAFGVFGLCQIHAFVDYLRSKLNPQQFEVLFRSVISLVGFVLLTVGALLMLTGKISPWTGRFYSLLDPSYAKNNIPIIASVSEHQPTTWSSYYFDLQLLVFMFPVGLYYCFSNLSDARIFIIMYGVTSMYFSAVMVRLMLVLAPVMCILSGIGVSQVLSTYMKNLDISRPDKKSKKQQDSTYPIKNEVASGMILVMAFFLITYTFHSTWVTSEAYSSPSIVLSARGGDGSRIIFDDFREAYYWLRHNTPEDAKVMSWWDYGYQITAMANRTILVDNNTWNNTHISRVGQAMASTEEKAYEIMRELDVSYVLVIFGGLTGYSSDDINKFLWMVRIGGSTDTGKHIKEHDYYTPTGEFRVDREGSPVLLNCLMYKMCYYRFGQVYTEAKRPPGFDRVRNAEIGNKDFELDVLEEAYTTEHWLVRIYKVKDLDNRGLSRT
Description: Cell free OST inhibition, canine pancreas microsomes with in vitro translation of pSAP mRNA. Type of test: biochemical. Particulars: FIG. 2D. The procedure:
FIGS. 2A-2I illustrate the finding that NGI-1 blocks OST function. FIG. 2A illustrates the western blots of glycosylated luciferase (Luc) after treatment with 1 μM tunicmaycin (Tn) and 10 μM NGI-1 in CHO-Lec15 and CHO-Lec35 cells with stable expression of ER-LucT. FIG. 2B is a […] illustrating FACE analysis of lipid linked oligosaccharides (LLOs). FIG. 2C is a series of western blots illustrating the effects of NGI-1 (5 μM) on free oligosaccharides (left panel) and N-linked glycans cleaved from peptides with Peptide-N-Glycosidase F (right panel). Carbohydrate size is indicated with glucose markers (G4-G7). FIG. 2D is a western blot illustrating cell free inhibition of the OST using a rabbit reticulocyte lysate translation system supplemented with canine pancreas rough microsomes (cRM). […] FIGS. 2G-2H: Dose response and quantitation of NGI-1 effect on pSAP (squares) and SHBG glycosylation (circles). […]
The OST is an ER resident multi-subunit complex that cleaves LLOs and transfers the oligosaccharide to a protein encoded N-linked glycosylation consensus sequence (NXT/S). […] Both enzymatic products of the OST, free glycans and protein glycans, were therefore determined with and without NGI-1 treatment using optimized conditions in streptolysin-O permeabilized CHO cells (FIG. 2C). […]

Test [2] concerns PC9 cells. Description: Assessment of senescence, autofluorescence by flow cytometry, PC9. Type of test: cell-based. The settings on record: PC9, NGI-1 treatment for 5 days. The procedure:
FIGS. 5A-5G illustrate NGI-1 induces G1 arrest and senescence in EGFR addicted tumor cells. FIG. 5A illustrates cell cycle distribution of PC9 cells after 24 h NGI-1 treatment for 24 h determined by flow cytometry. […] FIG. 5B illustrates cell cycle distribution of A549 cells after 24 h NGI-1 treatment for 24 h determined by flow cytometry. FIG. 5C illustrates western blot time course of cyclin D1 expression in PC9 and A549 cells after NGI-1 treatment. FIG. 5D illustrates quantitative real-time PCR analysis of PC9 and A549 cells. A time course of cyclin D1 expression levels relative to GAPDH is represented. […] FIG. 5F illustrates senescence of PC9 cells explored by: cell autofluorescence, measured by flow cytometry using a detector for PE/YFP; lipofuscin accumulation, detected by confocal laser scanning microscopy using an excitation laser of 405 nm with acquired signals from spectrums of yellow 575-620 nm; and morphology changes, enlarged vs. flattened. […] Significance was calculated using a T test (*p<0.05. **p<0.01). FIG. 5G illustrates senescence of A549 cells explored by: cell autofluorescence, measured by flow cytometry using a detector for PE/YFP; lipofuscin accumulation, detected by confocal laser scanning microscopy using an excitation laser of 405 nm with acquired signals from spectrums of yellow 575-620 nm; and morphology changes, enlarged vs. flattened. […]

`Cc1cnc(NC(=O)c2cc(S(=O)(=O)N(C)C)ccc2N2CCCC2)s1` [NGI-1, 5-(N,N-Dimethylsulfamoyl)-N-(5-methylthiazol-2-yl)-2-(pyrrolidin-1-yl)benzamide]: the “inhibition of pSAP N-linked glycosylation, cell free” value in test [1] was “dose dependent inhibition of pSAP N-linked glycosylation”. The “increase of autofluorescence by flow cytometry” value in test [2] is recorded as below 60%.
